Measured values reported in US4443478A, “Prostaglandin analogues” (Ono Pharmaceutical Co., Ltd., priority 1981, dated 1984).
In brackets after ≈: the same amount, converted by molar mass.

Legend:
[1] = system: α-naphthylisothiocyanate-induced liver damage; experiment: α-naphthylisothiocyanate-induced liver damage in rats; assay type: in vivo; conditions: rat, oral, 100 μg/kg, in comparison with controls
[2] = system: carbon tetrachloride-induced liver damage; experiment: carbon tetrachloride-induced liver damage in rats; assay type: in vivo; conditions: rat, in comparison with controls
[3] = system: adenosine diphosphate-induced blood platelet aggregation; experiment: inhibition of adenosine diphosphate-induced blood platelet aggregation in platelet-rich plasma; assay type: cell-based; conditions: Homo sapiens; platelet-rich plasma of humans; read-out: concentration producing 50% inhibition of adenosine diphosphate-induced blood platelet aggregation
[4] = system: blood pressure; experiment: fall in blood pressure in the allobarbital-anaesthetized dog; assay type: in vivo; conditions: intravenous
[5] = system: D(+)-galactoseamine-induced liver damage; experiment: D(+)-galactoseamine-induced liver damage in rats; assay type: in vivo; conditions: rat, oral, 100 μg/kg, in comparison with control
[6] = system: male mice; experiment: acute toxicity by oral administration; assay type: in vivo, mouse
Description: On the other hand, the compounds of the present invention were confirmed that their toxicities (i.e. LD50) were more than […] animal body weight by oral administration. Therefore, the compounds of the present invention may be considered to be sufficiently safe and suitable for medical use.

[7] = system: uterine contraction; experiment: stimulation of uterine contraction in the pregnant female rat; assay type: in vivo; conditions: 20th day of gestation, intravenous
[8] = system: stress ulceration; experiment: inhibition of stress ulceration in rats; assay type: in vivo; conditions: rat, oral
Text: For example, in standard laboratory tests, (i) in stress ulceration of rats [produced according to the methods of Takagi and Okabe, Jap.

Row | Structure (SMILES) | inhibition of plasma GOT [1] [%] | inhibition of plasma GPT [1] [%] | inhibition of plasma bilirubin [1] [%] | inhibition of plasma GOT (glutamic oxalacetic transaminase) ([2]; oral, 50 μg/kg) [%] | inhibition of plasma GPT (glutamic pyruvic transaminase) ([2]; oral, 50 μg/kg) [%] | IC50 [3] [µg/mL] | duration of fall in blood pressure ([4]; 0.5 μg/kg) [min] | fall in blood pressure ([4]; 0.5 μg/kg) [mm Hg] | deaths in acute toxicity test ([6]; 10 mg/kg) | stimulation of uterine contraction ([7]; 20 μg/kg) | deaths in acute toxicity test ([6]; 5 mg/kg) | also measured
1 | CCCC1CC([C@H](O)/C=C/[C@H]2[C@H](O)CC(=O)[C@@H]2CC(=O)CCCCC(=O)CO)C1 (relative stereo) [1-hydroxymethyl-11α,15(S)-dihydroxy-15-(3-propylcyclobutyl)-16,17,18,19,20-pentanorprost-trans-13-ene-1,6,9-trione] | 53.1 | 61.3 | 30.3 | – | – | – | – | – | – | – | – | –
2 | CCCCC1CCC([C@H](O)/C=C/[C@H]2[C@H](O)CC(=O)[C@@H]2CC(=O)CCCCC(=O)CO)C1 (stereo partly drawn) [1-Hydroxymethyl-11α,15(S)-dihydroxy-15-(3-butylcyclopentyl)-16,17,18,19,20-pentanorprost-trans-13-ene-1,6,9-trione] | 30.3 | 41.7 | 15.2 | 54.9 | 48.6 | 0.0036 to 0.072 (≈ 0.00825 to 0.165 µM) | 17 | 20 | 2 deaths in 5 cases | stimulated uterine contraction | – | duration of fall in blood pressure ([4]; 1.0 μg/kg): 40 min; fall in blood pressure ([4]; 1.0 μg/kg): 47 mm Hg; inhibition of plasma GOT [5]: 57.0%; inhibition of plasma GPT [5]: 54.0%; inhibition of plasma bilirubin [5]: 63.0%; stimulation of uterine contraction ([7]; 50 μg/kg): stimulated uterine contraction
3 | CCCC1CCC([C@H](O)/C=C/[C@H]2[C@H](O)CC(=O)[C@@H]2CC(=O)CCCCC(=O)CO)C1 (stereo partly drawn) [1-Hydroxymethyl-11α,15(S)-dihydroxy-15-(3-propylcyclopentyl)-16,17,18,19,20-pentanorprost-trans-13-ene-1,6,9-trione] | – | – | – | 46.7 | 45.1 | 0.0018 to 0.018 (≈ 0.00426 to 0.0426 µM) | – | – | – | – | one death in 5 cases | duration of fall in blood pressure ([4]; 0.1 μg/kg): 9 min; fall in blood pressure ([4]; 0.1 μg/kg): 20 mm Hg; duration of fall in blood pressure ([4]; 0.2 μg/kg): 23 min; fall in blood pressure ([4]; 0.2 μg/kg): 35 mm Hg
4 | CCCC[C@H](C)C[C@H](O)/C=C/[C@H]1[C@H](O)CC(=O)[C@@H]1CC(=O)CCCCC(=O)CO (relative stereo) [1-Hydroxymethyl-11α,15(S)-dihydroxy-17(S),20-dimethylprost-trans-13-ene-1,6,9-trione] | 49.0 | 53.7 | 21.2 | 58.0 | 59.7 | – | 29 | 15 | no deaths in 10 cases | stimulated uterine contraction | no deaths in 10 cases | inhibition of plasma GOT (glutamic oxalacetic transaminase) ([2]; subcutaneous, 20 μg/kg): 61.4%; inhibition of plasma GPT (glutamic pyruvic transaminase) ([2]; subcutaneous, 20 μg/kg): 48.7%; duration of fall in blood pressure ([4]; 0.3 μg/kg): 14 min; fall in blood pressure ([4]; 0.3 μg/kg): 6 mm Hg; inhibition of stress ulceration ([8]; 20 μg/kg): 56.8%; inhibition of stress ulceration ([8]; 50 μg/kg): 91.8%
